Experiments:
[1] = Detergency against keratotic plugs: penetration of the sample into the keratotic plugs; design: species or system human; conditions: keratotic plugs kept in contact with a sample for 1 minute; Table 1 samples
Experimental: (§1) 1. Evaluation of Detergency Against Keratotic Plugs During Cleansing
(§2) Keratotic plugs in the nasal region were removed with “Biore Nose Pack (manufactured by Kao Corporation)”, the resulting keratotic plugs on the pack were gently taken out with tweezers.
(§3) The resulting keratotic plugs were placed on a slide glass and were covered with a cover glass, and 0.05 mL of a sample was dropwise added to an edge of the cover glass. Consequently, the sample enters into the gap between the slide glass and the cover glass by capillary phenomenon and is brought into contact with the keratotic plugs. The contact of the keratotic plugs with the sample was recorded with a digital microscope (VHX-5000, manufactured by Keyence Corporation, magnification: x150), and the penetration of the sample into the keratotic plugs and the collapse state of the keratotic plugs were evaluated after one minute from the contact of the keratotic plugs with the sample. The results of each evaluation are shown in the columns “Detergency against keratotic plugs (penetration)” and “Detergency against keratotic plugs (during cleansing)” in Tables. The measurements were performed at 25° C.
(§4) The penetration was relatively evaluated by 11 criteria from the state 1 “the sample hardly penetrated into the keratotic plug” to the state 11 “the sample penetrated to the center of the keratotic plug”. The collapsibility by the detergency against keratotic plugs was relatively evaluated by 11 criteria from the state 1 “almost no change is observed in the external appearance of the keratotic plug” to the state 11 “peeling or separation is observed in the area from the surface layer to the central portion of the keratotic plug (the initial appearance of the keratotic plug is not retained)”.

[2] = Detergency against keratotic plugs after washing with water; design: species or system human; conditions: keratotic plugs kept in contact with water for 1 minute after the sample
Source text: as §4
2. Evaluation of Detergency Against Keratotic Plugs after Washing with Water
After one minute from the contact of the keratotic plugs with the sample, KimWipes (registered trademark) was brought into contact with an edge of the cover glass to remove the sample under the cover glass. Subsequently, 0.05 mL of water was dropwise added to an edge of the cover glass. The sample dropwise added with water was recorded with the digital microscope, and the collapse state of the keratotic plugs was evaluated after one minute from the contact of the keratotic plugs with water according to the criteria for evaluating collapsibility of the keratotic plugs. The results of the evaluation are shown in the column “Detergency against keratotic plugs (after washing with water)” in Table. The measurements were performed at 25° C.

[3] = Detergency against keratotic plugs during cleansing: collapse state of the keratotic plugs; design: species or system human; conditions: keratotic plugs kept in contact with a sample for 1 minute; Table 1 samples
Experimental: as §1, §2, §3, §4

[4] = system: insoluble protein (zein protein); assay: Evaluation of effect of suppressing protein aggregation; conditions: Table 1 sample
Experimental: <<Evaluation of Effect of Suppressing Protein Aggregation>>
Thirty milliliters of a sample and 0.06 g of an insoluble protein (zein protein) were placed in a 35-mL standard glass bottle, and the concentration of the insoluble protein was adjusted to 0.2 mass % (test sample). Separately, a standard sample was prepared by using water instead of the sample and adjusting the concentration of the insoluble protein to 0.2 mass %. Subsequently, the standard glass bottles were sufficiently shaken and stirred up and down (shake width: 15 cm, 20 times at a rate of 5 times for 3 seconds) in a thermostatic chamber of 25° C. and were left to stand per 3 minutes. The precipitation state of the insoluble protein was then visually verified, and the ratio of the amount of the precipitated standard sample to the amount of the precipitated test sample (the height of the precipitate in each standard glass bottle was measured as the precipitation amount), (precipitation amount of standard sample)/(precipitation amount of test sample), was calculated. A higher ratio indicates a higher effect of suppressing protein aggregation.

| Compound | penetration into keratotic plugs (in words) [1] | collapse of the keratotic plugs on contact with water (in words) [2] | collapse of the keratotic plugs in contact with the sample (in words) [3] | action on proteins (in words) [4] |
| --- | --- | --- | --- | --- |
| O=C([O-])O.[Na+] [sodium hydrogen carbonate] | hardly penetrated into keratotic plugs | the collapse of the keratotic plugs did not progress | the collapse of the keratotic plugs did not progress | – |
| O=P([O-])([O-])[O-].[Na+].[Na+].[Na+] [trisodium phosphate] | hardly penetrated into keratotic plugs | the collapse of the keratotic plugs did not progress | the collapse of the keratotic plugs did not progress | – |
| N=C(N)NCCC[C@H](N)C(=O)O [Arginine] | penetrated into keratotic plugs | further swelled to cause a phenomenon of accelerating the collapse of the keratotic plugs | – | – |
| sodium polyoxyethylene (2) lauryl ether sulfate [POE (2) sodium lauryl sulfate] | hardly penetrated into the keratotic plugs | – | the collapse of the keratotic plugs did not progress | the action on proteins was strong to dissolve the proteins |
| O=P([O-])([O-])O.[Na+].[Na+] [disodium hydrogen phosphate] | hardly penetrated into keratotic plugs | the collapse of the keratotic plugs did not progress | the collapse of the keratotic plugs did not progress | – |
